Ends that are not written are not given here.
Tests used:
[1] = system: antiserum against ESPGPERVW peptide of human VGF; assay type: binding; conditions: for inhibition of binding of the antiserum to labeled peptide: 1, 10, and 100 pmol of the peptides
Experimental: Namely, to 100 μL of antiserum diluted 9×10^5 folds with RIA buffer, 100 μL of RIA buffer containing a fixed amount of [^125I]-labeled Peptide 1 (approximately 20000 cpm, 500-550 Bq, approximately 9 fmol in terms of peptide amount) and 100 μL of RIA buffer solutions each containing a sequentially diluted VGF-derived peptide were added, this was incubated at 4° C. for 40 hours, and the labeled Peptide 1 and VGF-derived peptide were competitively bound to the antibody in the antiserum. As controls, reactions that use RIA buffer instead of the antiserum to measure non-specific binding, and reactions that use RIA buffer instead of VGF-derived peptide solutions to measure the maximum binding level were carried out. Reactions for non-specific binding were performed in quadruplicates, and the other reactions were performed in duplicates, and for each of the reactants, the immune complex was precipitated as in the above-mentioned antibody titer measurements, and its radioactivity (cpm) was measured. The average radioactivity of non-specific binding reaction is defined as non-specific binding level N, the radioactivity value for each VGF-derived peptide addition reaction is defined as Y, and the radioactivity value of maximum binding reaction is defined as Z. The percentage ratio (B/B0) of antiserum specific binding level (B) with peptide addition to the maximum binding level (B0), was determined using the following formula.
B/B0(%)={(Y−N)/(Z−N)}×100
Accordingly, the amount of peptide that achieves 50% B/B0, more specifically, the amount of peptide that yields 50% inhibition of the maximum binding level, was used as an indicator of the peptide binding activity to the antiserum.

[2] = system: hypothalamic cells of the apoaequorin-expressing mice; test: Intracellular calcium ion increase (aequorin luminescence), hypothalamus; assay type: cell-based, mouse; conditions: for increase of intracellular calcium concentration in hypothalamic cells (RLU per second): added at 25 seconds; for luminescence (intracellular calcium ion increase) in hypothalamus: peptide at final concentrations of 1 μmol/L and 5 μmol/L
Experimental: (§1) A hypothalamus, pituitary gland, kidney, heart, blood vessel, or a portion of brain tissue is collected from transgenic mice systemically expressing apoaequorin (WO02/010371) produced by introducing an apoaequorin gene expression vector into fertilized eggs. The obtained hypothalamus, pituitary gland, kidney, heart, blood vessel, or brain tissue is cut finely into pieces, suspended in a medium containing coelenterazine, and then incubated to incorporate coelenterazine into the cells to form aequorin (a complex of apoaequorin and coelenterazine). Since aequorin luminesces upon binding to intracellular calcium ions, the relative luminescence level in cells before and after addition of a medium containing the peptide or a pharmaceutically acceptable salt thereof is measured in a luminometer every second over time and is used as an indicator of intracellular calcium ion concentration. Increase in the relative luminescence level due to addition of the peptide or pharmaceutically acceptable salt thereof confirms that the peptide or pharmaceutically acceptable salt thereof has the activity to increase intracellular calcium ion concentration.
(§2) Whether Peptides 1 to 8 synthesized in Example 2 have the activity of increasing intracellular calcium ion concentration was investigated using the organs of transgenic mice introduced with the apoaequorin gene and systemically expressing apoaequorin (hereinafter referred to as apoaequorin-expressing mice). In apoaequorin-expressing mouse cells, light is emitted when apoaequorin binds to a calcium ion in the presence of the luminescent substrate coelenterazine and thus the intracellular calcium ion concentration can be monitored. Patent Document (WO02/010371) discloses the method for producing apoaequorin-expressing mice, method for evaluating biologically active substances that use biological samples derived from the mice, and experimental results of evaluating biologically active peptides using the mouse organs as shown below. […] Therefore, apoaequorin-expressing mice can be used in the evaluation of the physiological activities of novel peptides.
(§3) Apoaequorin-expressing mice were produced according to the method disclosed in Reference Example 4 of Patent Document (WO02/010371). The apoaequorin-expressing mice were sacrificed, individual organs including thymus, hypothalamus, spleen, bone, aorta, heart, kidney, adrenal gland, pancreas, pituitary gland, uterus, medulla oblongata, and spinal cord were removed; and each of the organs was cut into small cubes of approximately 1 to 2 mm^3. Next, in 5-mL tubes (Rohren-Tubes; manufactured by Sarstedt, No. 55.476), three portions of each of the prepared organs were added to 50 μL of a 10 μmol/L solution of coelenterazine (manufactured by Molecular Probes) dissolved in RPMI 1640 medium, and these were cultured at 37° C. for three hours. After culturing, RPMI 1640 medium was added, and then Peptides 1 to 5 dissolved in RPMI 1640 medium were added 25 seconds after the addition of RPMI 1640 until each peptide had final concentrations of 1 μmol/L and of 5 μmol/L, and the relative luminescence levels were measured every second immediately after the addition of RPMI 1640 medium by using a luminometer (AutoLumat LB953, manufactured by Berthold).

[3] = system: pituitary cells of the apoaequorin-expressing mice; test: Intracellular calcium ion increase (aequorin luminescence), pituitary gland; assay type: cell-based, mouse; conditions: for increase of intracellular calcium concentration in pituitary cells (RLU per second): added at 25 seconds; for luminescence (intracellular calcium ion increase) in pituitary gland: peptide at final concentrations of 1 μmol/L and 5 μmol/L
Experimental: as §1, §2, §3

[4] = system: medulla oblongata of apoaequorin-expressing mice; test: Intracellular calcium ion increase (aequorin luminescence), medulla oblongata; assay type: cell-based, mouse; conditions: peptide at final concentrations of 1 μmol/L and 5 μmol/L
Experimental: as §1, §2, §3

[5] = system: cardiac cells of the apoaequorin-expressing mice; test: Intracellular calcium ion increase (aequorin luminescence), heart; assay type: cell-based, mouse
Experimental: as §1, §2, §3

[6] = system: thymus of apoaequorin-expressing mice; test: Intracellular calcium ion increase (aequorin luminescence), thymus; assay type: cell-based, mouse; conditions: peptide at final concentrations of 1 μmol/L and 5 μmol/L
Experimental: as §1, §2
Apoaequorin-expressing mice were produced according to the method disclosed in Reference Example 4 of Patent Document (WO02/010371). […] After culturing, RPMI 1640 medium was added, and then Peptides 1 to 5 dissolved in RPMI 1640 medium were added 25 seconds after the addition of RPMI 1640 until each peptide had final concentrations of 1 μmol/L and of 5 μmol/L, and the relative luminescence levels were measured every second immediately after the addition of RPMI 1640 medium by using a luminometer (AutoLumat LB953, manufactured by Berthold).

[7] = system: kidney cells of the apoaequorin-expressing mice; test: Intracellular calcium ion increase (aequorin luminescence), kidney; assay type: cell-based, mouse
Experimental: as §1, §2, §3

[8] = system: male rats; conditions: direct administration to the PVN of male rats; Non-patent Document 7; cited from earlier work
[9] = 1 μmol/L peptide, added at 25 seconds
[10] = peptide at final concentrations of 1 μmol/L and 5 μmol/L

With `CC[C@H](C)[C@@H]1NC(=O)[C@H](CCCNC(=N)N)NC(=O)[C@H](CC(=O)O)NC(=O)[C@H](CCSC)NC(=O)[C@H](CCCNC(=N)N)NC(=O)CNC(=O)CNC(=O)[C@H](Cc2ccccc2)NC(=O)[C@@H](NC(=O)[C@H](CO)NC(=O)[C@H](CO)NC(=O)[C@H](CCCNC(=N)N)NC(=O)[C@H](CCCNC(=N)N)NC(=O)[C@H](CC(C)C)NC(=O)[C@@H](N)CO)CSSC[C@@H](C(=O)N[C@@H](CC(N)=O)C(=O)N[C@@H](CO)C(=O)N[C@@H](Cc2ccccc2)C(=O)N[C@@H](CCCNC(=N)N)C(=O)N[C@@H](Cc2ccc(O)cc2)C(=O)O)NC(=O)CNC(=O)[C@H](CC(C)C)NC(=O)CNC(=O)[C@H](CO)NC(=O)[C@H](CCC(N)=O)NC(=O)[C@H](C)NC(=O)CNC1=O` [atrial natriuretic peptide] the “inhibition of binding of the antiserum to labeled peptide” value (“inhibition of binding of the antiserum” below) [1] was “none of these peptides showed inhibition”.
With `NC(=O)CC[C@@H]1NC(=O)[C@H](Cc2ccccc2)NC(=O)[C@H](Cc2ccc(O)cc2)NC(=O)[C@@H](N)CSSC[C@@H](C(=O)N2CCC[C@H]2C(=O)N[C@@H](CCCN=C(N)N)C(=O)NCC(N)=O)NC(=O)[C@H](CC(N)=O)NC1=O` [vasopressin] the “inhibition of binding of the antiserum” value [1] was “none of these peptides showed inhibition”.
With ESPGPERVW the “amount of the peptide that yields 50% inhibition of the maximum binding level (B/B0 50%)” value ([1]; antiserum diluted 9×10^5 folds, [125I]-labeled peptide approximately 9 fmol) was 9.0 fmol.
In the case of Leu-enkephalin, the “inhibition of binding of the antiserum” value [1] is reported as “none of these peptides showed inhibition”.
For “Met-enkephalin-Arg-Gly-Leu (YGGFMRGL) [non-VGF peptide]”, the “inhibition of binding of the antiserum” value [1] was “none of these peptides showed inhibition”.
For PAMP-20, the “inhibition of binding of the antiserum” value [1] was “none of these peptides showed inhibition”.
In the case of “Peptide 2: amino acid sequence at position 195 to 206 in human VGF (VNLESPGPERVW; synthetic Peptide 2, VGF-related peptide, human VGF positions 195-206)”, the “increase of intracellular calcium concentration in hypothalamic cells (RLU per second)” value ([2]; 1 μmol/L peptide) is reported as “increase of intracellular calcium concentration”, the “luminescence (intracellular calcium ion increase) in hypothalamus” value [2] is reported as “luminescence was observed” and the “increase of intracellular calcium concentration in pituitary cells (RLU per second)” value ([3]; 1 μmol/L peptide) is reported as “increase of intracellular calcium concentration”. The “luminescence (intracellular calcium ion increase) in pituitary gland” value [3] was “luminescence was observed”, the “luminescence (intracellular calcium ion increase) in medulla oblongata” value [4] was “luminescence was observed” and the “increase of intracellular calcium concentration in cardiac cells (RLU per second)” value [5, 9] was “increase of intracellular calcium concentration”. For the same compound, the “luminescence (intracellular calcium ion increase) in heart” value [5, 10] was “luminescence was observed”.
In the case of “Peptide 3: amino acid sequence at position 485 to 495 in human VGF (NAPPEPVPPPR; synthetic Peptide 3, VGF-related peptide, human VGF positions 485-495)”, the “increase of intracellular calcium concentration in hypothalamic cells (RLU per second)” value ([2]; 1 μmol/L peptide) is reported as “increase of intracellular calcium concentration”, the “luminescence (intracellular calcium ion increase) in hypothalamus” value [2] is reported as “luminescence was observed” and the “increase of intracellular calcium concentration in pituitary cells (RLU per second)” value ([3]; 5 μmol/L peptide) is reported as “increase of intracellular calcium concentration”. The “luminescence (intracellular calcium ion increase) in pituitary gland” value [3] was “luminescence was observed”, the “luminescence (intracellular calcium ion increase) in thymus” value [6] was “luminescence was observed” and the “luminescence (intracellular calcium ion increase) in medulla oblongata” value [4] was “luminescence was observed”. For the same compound, the “increase of intracellular calcium concentration in kidney cells (RLU per second)” value [7, 9] was “increase of intracellular calcium concentration” and the “luminescence (intracellular calcium ion increase) in kidney” value [7, 10] was “luminescence was observed”.
For “Peptide 9: amino acid sequence at position 554 to 577 in human VGF (TLQPPSALRRRHYHHALPPSRHYP; synthetic Peptide 9, VGF-related peptide, human VGF positions 554-577)”, the “increase of intracellular calcium concentration in hypothalamic cells (RLU per second)” value ([2]; 5 μmol/L peptide) was “increase of intracellular calcium concentration”, the “luminescence (intracellular calcium ion increase) in hypothalamus” value [2] was “luminescence was observed” and the “increase of intracellular calcium concentration in pituitary cells (RLU per second)” value ([3]; 5 μmol/L peptide) was “increase of intracellular calcium concentration”. The “luminescence (intracellular calcium ion increase) in pituitary gland” value [3] was “luminescence was observed”.
For adrenomedullin, the “inhibition of binding of the antiserum” value [1] was “none of these peptides showed inhibition”.
With calcitonin the “inhibition of binding of the antiserum” value [1] was “none of these peptides showed inhibition”.
For calcitonin receptor-stimulating peptide, the “inhibition of binding of the antiserum” value [1] was “none of these peptides showed inhibition”.
For corticotropin-releasing factor, the “inhibition of binding of the antiserum” value [1] was “none of these peptides showed inhibition”.
With glucagon the “inhibition of binding of the antiserum” value [1] was “none of these peptides showed inhibition”.
For melanin-concentrating hormone, the “inhibition of binding of the antiserum” value [1] was “none of these peptides showed inhibition”.
For melanocyte-stimulating hormone, the “inhibition of binding of the antiserum” value [1] was “none of these peptides showed inhibition”.
In the case of neuromedin U-8, the “inhibition of binding of the antiserum” value [1] is reported as “none of these peptides showed inhibition”.
With neuropeptide Y the “inhibition of binding of the antiserum” value [1] was “none of these peptides showed inhibition”.
With “peptide HI: non-VGF peptide (HADGVFTSDYSRLLGQISAKKYLESLI; ends and bridges not checked; UniProt P01283 81-107, looked up)” the “inhibition of binding of the antiserum” value [1] was “none of these peptides showed inhibition”.
In the case of “rat VGF (577-617): known partial peptide, positions 577-617 of rat VGF (HHPDLEAQARRAQEEADAEERRLQEQEELENYIEHVLLHRP; UniProt P20156 577-617, looked up, fragment)”, the erection inducing activity [8] is given as “showed an erection inducing activity”.
In the case of “rat VGF (588-617): known partial peptide, positions 588-617 of rat VGF (AQEEADAEERRLQEQEELENYIEHVLLHRP; UniProt P20156 588-617, looked up, fragment)”, the erection inducing activity [8] is listed as “showed an erection inducing activity”.
In the case of “rat VGF (599-617): known partial peptide, positions 599-617 of rat VGF (LQEQEELENYIEHVLLHRP; UniProt P20156 599-617, looked up, fragment)”, the erection inducing activity [8] is listed as “showed an erection inducing activity”.
For secretin, the “inhibition of binding of the antiserum” value [1] was “none of these peptides showed inhibition”.
